Data: patent US7888063B2, “Unnatural reactive amino acid genetic code additions” (The Scripps Research Institute, priority 2003, dated 2011)

Assays:
position 33 of hSOD = experiment: LC-MS/MS of tryptic peptide VY*GSIK of mutant hSOD: identity of the amino acid incorporated; set-up: species or system Saccharomyces cerevisiae; settings: from the signal-to-noise ratio of the peptide spectra; hSOD position 33
Experimental: The identity of the amino acid incorporated was determined by subjecting a tryptic digest of the mutant protein to liquid chromatography and tandem mass spectrometry. For example, for mass spectrometry protein bands were visualized by colloidal Coomassie stain. Gel bands corresponding to wild-type and mutant SOD were excised from polyacrylamide gels, sliced into 1.5-mm cubes, reduced and alkylated, then subjected to trypsin hydrolysis essentially as described. See, e.g., A. Shevchenko, et al., (1996), Analytical Chemistry 68, 850-858. Tryptic peptides containing the unnatural amino acid were analyzed by nanoflow reversed-phase HPLC/μESI/MS with an LCQ ion trap mass spectrometer. Liquid chromatography tandem mass spectrometry (LC-MS/MS) analysis was performed on a Finnigan LCQ Deca ion trap mass spectrometer (Thermo Finnigan) fitted with a Nanospray HPLC (Agilent 1100 series). See, e.g., FIG. 10, Panels A-H. […]
For example, the wild-type and mutant hSOD were purified using nickel affinity column and protein bands were visualized by colloidal Coomassie stain. […] Tryptic peptides containing the unnatural amino acid were analyzed by nanoflow reversed-phase HPLC/μESI/MS with an LCQ ion trap mass spectrometer. […]

[1] = test system: GAL4 responsive HIS3, URA3 and lacZ reporters in MaV203; experiment: Growth of selection strain MaV203:pGADGAL4(2TAG) harboring synthetase plasmids on selective media (-ura, -his + 3-AT, 5-FOA, X-GAL); assay type: cell-based, Saccharomyces cerevisiae; settings: MaV203 containing pGADGAL4(T44TAG, R110TAG)
Experimental: S. cerevisiae strain MaV203, (Invitrogen) is MATα; leu2-3,112; trp1 109;his3 Δ200;ade2-101;cyh2^R;cyh1^R;GAL4 Δ; gal80 Δ; GAL1::lacZ; HIS3UASGAL1::HIS3@LYS2; SPAL10UASGAL1::URA3. Yeast media were purchased from Clontech, 5-FOA and X-GAL were from Invitrogen and 3-AT was from BIO 101. YPER (Yeast Protein Extraction Reagent) and ONPG were purchased from Pierce Chemicals. Plasmid transformations were performed by the PEG/Lithium actetate method (see, e.g., D. Burke, et al., (2000) Methods in Yeast Genetics. Cold Spring Harbor Laboratory Press, Cold Spring Harbor, N.Y.) and transformants selected on the appropriate synthetic complete dropout media. To test the phenotypes conferred by various plasmid combinations on MaV203 yeast colonies from synthetic complete dropout plates of each transformation were resuspended in 15 μL of sterile water and streaked on the selective media of interest. […] The OD660 of 100 μL of cells, and several dilutions of cells were recorded in parallel in a 96 well microtiter plate. […] Upon color development, cells were pelleted by centrifugation, the supernatant transferred to a clean 96 well microtiter plate (Nunclon, cat.# 167008), and the A420 recorded. […] ONPG hydrolysis was calculated using the equation: beta-galactosidase units=[…]. […] Spectrophotometric readings were performed on a SPECTRAmax190 plate reader. […]

CC(=O)c1ccc(C[C@H](N)C(=O)O)cc1 [p-acetyl-L-phenylalanine]
incorporation purity (position 33 of hSOD): ≥ 99.8%

B1: EcTyrRS: Escherichia coli tyrosyl-tRNA synthetase, expressed with tRNACUA in yeast (protein, UniProt P0AGJ9 2-424, looked up)
Tyrosine--tRNA ligase: ASSNLIKQLQERGLVAQVTDEEALAERLAQGPIALYCGFDPTADSLHLGHLVPLLCLKRFQQAGHKPVALVGGATGLIGDPSFKAAERKLNTEETVQEWVDKIRKQVAPFLDFDCGENSAIAANNYDWFGNMNVLTFLRDIGKHFSVNQMINKEAVKQRLNREDQGISFTEFSYNLLQGYDFACLNKQYGVVLQIGGSDQWGNITSGIDLTRRLHQNQVFGLTVPLITKADGTKFGKTEGGAVWLDPKKTSPYKFYQFWINTADADVYRFLKFFTFMSIEEINALEEEDKNSGKAPRAQYVLAEQVTRLVHGEEGLQAAKRITECLFSGSLSALSEADFEQLAQDGVPMVEMEKGADLMQALVDSELQPSRGQARKTIASNAITINGEKQSDPEYFFKEEDRLFGRFTLLRRGKKNYCLICWK
growth phenotype on 3-AT plates [1]: grew robustly on plates with 3-AT concentrations up to 75 mM
